One data set has as its system GABA PBR. Briefly: Displacement of [3H]-PK11195 from rat brain GABA PBR at 10 uM measured after 90 mins by microbeta scintillation counting method relative to control. The following applies: probe [3H]-PK11195.
For data set [1], the target named is Muscarinic acetylcholine receptor M2 (Homo sapiens, UniProt P08172).
For data set [2], the target named is Muscarinic acetylcholine receptor M3 (Homo sapiens, UniProt P20309).

A word on the inhibition: it is the relative decrease from the control value, in per cent. Low readings indicate a response near the control, high ones a response far below the control. For orientation: Ki means the dissociation constant of the complex between target and ligand, obtained from inhibition or displacement. Low values mean tighter binding, high ones weaker binding.

Chain of Muscarinic acetylcholine receptor M2 (P08172 whole entry): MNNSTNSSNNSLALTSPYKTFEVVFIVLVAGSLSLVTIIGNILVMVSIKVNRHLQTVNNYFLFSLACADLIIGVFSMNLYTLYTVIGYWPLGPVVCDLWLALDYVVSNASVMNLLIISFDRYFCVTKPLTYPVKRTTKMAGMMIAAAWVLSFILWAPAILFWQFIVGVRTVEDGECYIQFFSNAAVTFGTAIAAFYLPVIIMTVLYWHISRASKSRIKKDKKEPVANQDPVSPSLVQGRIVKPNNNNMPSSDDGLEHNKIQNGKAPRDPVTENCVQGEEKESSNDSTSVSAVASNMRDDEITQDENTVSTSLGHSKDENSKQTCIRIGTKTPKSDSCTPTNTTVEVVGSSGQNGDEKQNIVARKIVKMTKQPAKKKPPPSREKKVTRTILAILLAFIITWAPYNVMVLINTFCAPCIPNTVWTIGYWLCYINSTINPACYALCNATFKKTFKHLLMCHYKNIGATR
Chain of Muscarinic acetylcholine receptor M3 (P20309 whole entry): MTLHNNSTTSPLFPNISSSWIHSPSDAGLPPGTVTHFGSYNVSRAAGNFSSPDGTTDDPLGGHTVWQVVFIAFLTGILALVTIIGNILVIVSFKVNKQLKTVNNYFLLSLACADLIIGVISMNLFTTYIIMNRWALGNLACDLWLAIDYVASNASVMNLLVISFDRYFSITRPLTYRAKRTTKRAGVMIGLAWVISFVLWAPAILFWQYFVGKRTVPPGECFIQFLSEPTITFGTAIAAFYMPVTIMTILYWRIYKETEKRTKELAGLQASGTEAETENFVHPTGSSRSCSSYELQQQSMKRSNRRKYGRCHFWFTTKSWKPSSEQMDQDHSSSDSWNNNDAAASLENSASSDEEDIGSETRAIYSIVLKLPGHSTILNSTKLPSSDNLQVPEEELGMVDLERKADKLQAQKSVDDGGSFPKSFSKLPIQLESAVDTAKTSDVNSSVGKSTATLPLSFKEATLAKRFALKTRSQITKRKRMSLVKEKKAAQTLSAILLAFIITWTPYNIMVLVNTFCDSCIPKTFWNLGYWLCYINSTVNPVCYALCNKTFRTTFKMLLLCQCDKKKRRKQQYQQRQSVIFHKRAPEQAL

As for `CCCN(CC[C@]1(O)C[C@H](NC(=O)c2ccc3ccccc3c2)C1)[C@H]1CCc2nc(N)sc2C1`, in the data set on GABA PBR, the inhibition at […], 10 µM is under 50%. For the compound `CCCN[C@H]1CCc2nc(N)sc2C1` [PRAMIPEXOLE], the Ki in data set [1] and in data set [2] was over 10 µM in each case.

The values above are taken from ChEMBL document CHEMBL4402608 (J Med Chem, 2020).
